Entries after “also recorded” stand apart in the source; their conditions may differ.

What is called Kd is the constant that tells how readily two partners part at equilibrium.

For one test, the system named is HMC1.1 (KITV560G) cells. The test is described as follows: Proliferation assay (MTS cell viability) on HMC1.1 cells. The class given is cell-based, human. The method, then:
FIG. 5: Antibody modulation of oncogenic KIT. (A) HMC1.1 or HMC1.2 cells were incubated in IMDM 1% serum in the presence of anti-KIT antibodies or control antibody as indicated at 5 μg/mL (light grey) or 50 μg/mL (medium grey) or without antibody (dark grey). Cell viability is expressed in % compared to non treated cells. HMC1.1 or HMC1.2 cells were incubated in IMDM 10% serum in the presence of anti-KIT antibodies or control antibody (10 μg/mL) for 1, 2 or 24 hrs. As indicated and analyzed (B) by FACS using 104D2 anti-KIT antibody or (C) by western blot using anti-KIT and phospho-specific anti-KIT antibodies. (D) Three days treatment with anti-KIT antibodies maintained a low level of KIT on both mastocytoma cell lines.
UT-7 were seeded at 10^4 cells/well and treated for 4 days with 2D1, 3G1, H7 or Bot irrelevant antibody at 5 or 50 μg/mL […] in the presence of EPO or CHO-KL supernatant diluted 500 times. HMC1.1 and 1.2 were treated the same but for 7 days and with 1% SVF instead of 10% and without cytokines. Cell viability was estimated with MTS assay (PROMEGA) as recommended by the manufacturer.

Test [1] deals with HMC1.2 (KIT V560G D816V) cells. Put plainly: Proliferation assay (MTS cell viability) on HMC1.2 cells.
Test [2] addresses T1, KIT surface level on UT-7/EPO cells (wild type KIT) (Homo sapiens, UniProt P10721).
T1 construct: endogenous in cells; host or cells: UT-7/EPO human erythroleukemic cells
The test is described as follows: Internalization assay: KIT surface level by FACS with 104D2 on UT-7/EPO cells. The class given is cell-based. (In general: Flow cytometry measures light scatter and fluorescence of single cells or particles in a stream.)

A further test has as its target T2, biotinylated KIT-ECD (Homo sapiens, UniProt P10721).
T2 construct: KIT-ECD, amino acid 26 to 509, P10721 UniProtKB/Swiss-Prot; 6His (C); biotin (label); made in house; host or cells: insect cells (High Five, baculovirus)
Put plainly: Affinity measurement using yeast display of scFv with biotinylated KIT-ECD. It counts as binding. Conditions: scFv displayed on yeast; for Kd: affinity matured variants, read-out: intrinsic Kd. An excerpt:
Cells were then put on ice, washed with ice cold FACS buffer and bound antigen was detected with Streptavin conjugated to PE.

T2 sequence (P10721 26-509): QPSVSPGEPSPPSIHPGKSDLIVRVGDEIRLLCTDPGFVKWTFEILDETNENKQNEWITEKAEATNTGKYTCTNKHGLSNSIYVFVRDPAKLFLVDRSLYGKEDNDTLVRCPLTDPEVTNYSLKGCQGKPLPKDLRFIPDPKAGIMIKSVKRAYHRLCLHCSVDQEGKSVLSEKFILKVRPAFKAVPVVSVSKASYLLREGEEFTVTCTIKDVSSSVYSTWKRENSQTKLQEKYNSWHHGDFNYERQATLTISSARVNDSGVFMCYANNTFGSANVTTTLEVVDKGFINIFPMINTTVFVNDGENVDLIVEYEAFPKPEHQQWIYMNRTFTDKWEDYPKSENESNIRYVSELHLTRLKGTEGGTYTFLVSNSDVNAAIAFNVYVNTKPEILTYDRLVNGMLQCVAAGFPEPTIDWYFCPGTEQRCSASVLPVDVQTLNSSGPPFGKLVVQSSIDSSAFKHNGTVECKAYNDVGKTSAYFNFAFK
T1 sequence (P10721 26-976): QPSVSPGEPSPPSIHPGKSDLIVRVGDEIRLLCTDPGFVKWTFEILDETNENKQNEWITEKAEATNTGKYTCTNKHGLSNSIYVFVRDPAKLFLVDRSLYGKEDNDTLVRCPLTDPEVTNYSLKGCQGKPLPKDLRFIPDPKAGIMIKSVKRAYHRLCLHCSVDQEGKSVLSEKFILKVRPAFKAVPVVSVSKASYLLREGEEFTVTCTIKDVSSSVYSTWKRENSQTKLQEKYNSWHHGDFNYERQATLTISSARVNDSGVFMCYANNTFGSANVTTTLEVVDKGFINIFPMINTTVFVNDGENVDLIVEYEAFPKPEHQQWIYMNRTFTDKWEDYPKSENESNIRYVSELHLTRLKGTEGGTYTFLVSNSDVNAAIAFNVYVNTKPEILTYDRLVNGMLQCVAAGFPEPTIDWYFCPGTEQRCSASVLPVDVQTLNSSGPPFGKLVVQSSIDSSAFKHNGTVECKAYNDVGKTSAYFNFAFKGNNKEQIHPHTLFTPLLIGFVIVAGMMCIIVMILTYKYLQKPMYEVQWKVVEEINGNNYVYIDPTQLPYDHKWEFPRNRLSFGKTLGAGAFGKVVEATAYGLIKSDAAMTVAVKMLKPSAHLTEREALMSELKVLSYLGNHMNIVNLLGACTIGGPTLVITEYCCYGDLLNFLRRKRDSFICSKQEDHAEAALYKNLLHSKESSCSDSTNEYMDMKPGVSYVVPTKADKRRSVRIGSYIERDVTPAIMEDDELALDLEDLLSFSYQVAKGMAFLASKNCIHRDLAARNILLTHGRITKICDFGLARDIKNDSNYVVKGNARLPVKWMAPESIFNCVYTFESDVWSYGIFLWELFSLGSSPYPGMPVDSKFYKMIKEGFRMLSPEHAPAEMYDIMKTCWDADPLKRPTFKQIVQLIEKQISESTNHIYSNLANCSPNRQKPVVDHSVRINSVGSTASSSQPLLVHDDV

As for `Cc1nc(Nc2ncc(C(=O)Nc3c(C)cccc3Cl)s2)cc(N2CCN(CCO)CC2)n1` [dasatinib, N-(2-chloro-6-methylphenyl)-2-[[6-[4-(2-hydroxyethyl)-1-piperazinyl]-2-methyl-4-pyrimidinyl]amino]-5-thiazole-carboxamide monohydrate], the “toxicity of TKI to HMC1.1 cells” value in the test on HMC1.1 (KITV560G) cells is “toxic to HMC1.1 cells”. Further, the “toxicity of TKI to HMC1.2 cells” value in test [1] is “toxic to HMC1.2 cells”.
For the molecule `Cc1ccc(NC(=O)c2ccc(CN3CCN(C)CC3)cc2)cc1Nc1nccc(-c2cccnc2)n1` [imatinib, 4-[(4-methylpiperazin-1-yl)methyl]-N-(4-methyl-3-{[4-(pyridin-3-yl)pyrimidin-2-yl]amino}phenyl)benzamide], the “KIT surface levels, imatinib treatment alone” value in test [2] (UT-7/EPO cells with EPO, Imatinib 1 μM, 4 hrs) is listed as “decreased KIT surface levels; also recorded: reduced KIT level at the cell surface”. Further, the “effect on SCF-induced KIT surface level decrease” value in test [2] (UT-7/EPO cells, imatinib with SCF) is “inhibited SCF-induced KIT surface level decrease”. Also, the “toxicity of TKI to HMC1.1 cells” value with HMC1.1 (KITV560G) cells is recorded as “toxic to HMC1.1 cells”. The “toxicity of TKI to HMC1.2 cells” value in test [1] is “resistance of the D816V mutant to imatinib”.

B1: 3G1-A2: affinity matured variant of 3G1, same VH (SEQ ID NO: 9), VL SEQ ID NO: 30 (antibody, V domains shown)
VH: MAQVQLVESWGGVAQPGRSLRLSCAASGFTFSSFAMHWVRQAPGKGLEWVAVTSYDGSNEYYADSVKGRFTISRDNSKNTLYLQMNSLRAEDTAVYYCAKAMVRGVTFGDLDYWGQGTLVTVSS
VL: SSELTQDPAVSVALGQTVRKTCQGDSLKSYYASWYQQKPGQAPVLVIYGENSRPSGIPDRFSGSSSGNTASLTITGAQAEDEADYYCCSRATGGYHRIFGGGTKLTVLG
modifications: Synthetic 3G1 VH chain; Synthetic 3G1-A2 VL chain
Take B1: in the test with biotinylated KIT-ECD, the “concentration of Ag at which saturation is reached” value came to 10 nM and the Kd worked out at 1.7 nM.

B2: 2D1-C7: affinity matured variant of 2D1, same VH (SEQ ID NO: 1), VL SEQ ID NO: 26 (antibody, V domains shown)
VH: MAQVKLQESGGGLVQPGGSLRLSCAASGFTFDSYAMSWVRQAPGKGLEWVSYITSSSSTIYYVDSVKGRFTISRDNAKNSLYLQMNSLRDEDTAVYYCARLRNSEGYWYFDLWGRGTLVTVSS
VL: SQSVLTQDPAVSVALGQTVRITCQGDSLRSYYASWYQQKPGQAPLLVMYGENIRPSGIPDRFSGSTSGNSASLTITGAQAEDEADYYCNSRDSSGNHLNWVFGGGTKLTVLG
modifications: Synthetic 2D1 VH chain; Synthetic 2D1-C7 VL chain
Regarding B2, in the test with biotinylated KIT-ECD, the “concentration of Ag at which saturation is reached” value is on record as 10 nM and the Kd was found to be 4.2 nM.
